Experimental data: patent US10947271B2, “Antibacterial agents” (THE UNIVERSITY OF QUEENSLAND, priority 2014, dated 2021)

Key:
Type in all cases: cell-based
Conditions in all cases: 24 h incubation, visual reading
[1] = tested on: Streptococcus pneumoniae MDR ATCC 700677; assay: MIC assay, S. pneumoniae MDR ATCC 700677
Protocol: (§1) Antimicrobial activity of compounds was tested against a number of bacterial strains, including Staphylococcus aureus (MRSA ATCC 43300, GISA NRS17, VISA NRS1, MRSA clinical isolate, daptomycin resistant clinical isolate), Streptococcus pneumoniae (MDR ATCC 700677), Enterococcus faecalis (VanA clinical isolate) and Enterococcus faecium (MDR Van A ATCC 51559).
(§2) All compounds were prepared to 160 μg/ml solution in water from a stock solution of 1 mM concentration.
(§3) The compounds, along with standard antibiotics were serially diluted twofold across the wells of 96-well non-binding surface plates (NBS, Corning). Standards ranged from 64 μg/ml to 0.03 μg/ml and compounds from 8 μg/ml to 0.003 μg/ml with final volumes of 50 μL per well. Gram positive bacteria were cultured in Muller Hinton broth (MHB) (Bacto laboratories, Cat. no. 211443) at 37° C. overnight. A sample of each culture was then diluted 40-fold in fresh MHB broth and incubated at 37° C. for 2-3 hrs. The resultant mid-log phase cultures were diluted to the final concentration of 5×10e5 CFU/mL, then 50 μL was added to each well of the compound-containing 96-well plates. All the plates were covered and incubated at 37° C. for 24 h. MICs were the lowest concentration showing no visible growth.
(§4) MICs were determined visually at 24 hr incubation and the MIC was defined as the lowest concentration with which no growth was visible after incubation. Both MIC and MBC were determined by visual inspection only.

[2] = tested on: Enterococcus faecium MDR Van A ATCC 51559; assay: MIC assay, E. faecium MDR Van A ATCC 51559
Protocol: as §1, §2, §3, §4

[3] = tested on: Staphylococcus aureus MRSA ATCC 43300; assay: MIC assay, S. aureus MRSA ATCC 43300
Protocol: as §1, §2, §3, §4

SMILES | Minimum Inhibitory Concentration (MIC) S. pneumoniae ATCC 700677 [1] | Minimum Inhibitory Concentration (MIC) E. faecium ATCC51559 [2] | Minimum Inhibitory Concentration (MIC) Staph. aureus ATCC43300 [3]
CNC(=O)C(CCCCNC(=O)C1NC(=O)C2NC(=O)C(NC(=O)C3NC(=O)C(CC(N)=O)NC(=O)C(NC(=O)C(CC(C)C)NC)C(O)c4ccc(c(Cl)c4)Oc4cc3cc(c4OC3OC(CO)C(O)C(O)C3OC3CC(C)(N)C(O)C(C)O3)Oc3ccc(cc3Cl)C2O)c2ccc(O)c(c2)-c2c(O)cc(O)cc21)NC(=O)C(CCCCN)NC(=O)C(CCCCN)NC(=O)CCCOc1ccccc1 (stereo not drawn) [MCC_000505] | xx (xx = 1-4) | x (x = >4) | xxx (xxx = 0.1-<1)
CN[C@H](CC(C)C)C(=O)N[C@H]1C(=O)N[C@@H](CC(N)=O)C(=O)N[C@H]2C(=O)N[C@H]3C(=O)N[C@H](C(=O)N[C@H](C(=O)NCCCC[C@H](NC(=O)[C@H](CCCCN)NC(=O)[C@H](CCCCN)NC(=O)c4ccc(Cl)cc4)C(=O)O)c4cc(O)cc(O)c4-c4cc3ccc4O)[C@H](O)c3ccc(c(Cl)c3)Oc3cc2cc(c3O[C@@H]2O[C@H](CO)[C@@H](O)[C@H](O)[C@H]2O[C@H]2C[C@](C)(N)[C@H](O)[C@H](C)O2)Oc2ccc(cc2Cl)[C@H]1O [MCC_005505] | xx (xx = 1-4) | x (x = >4) | xx (xx = 1-4)
CCCCCCCCCC(=O)NC(CCCCN(C)C)C(=O)NCCCNC(=O)C1NC(=O)C2NC(=O)C(NC(=O)C3NC(=O)C(CC(N)=O)NC(=O)C(NC(=O)C(CC(C)C)NC)C(O)c4ccc(c(Cl)c4)Oc4cc3cc(c4OC3OC(CO)C(O)C(O)C3OC3CC(C)(N)C(O)C(C)O3)Oc3ccc(cc3Cl)C2O)c2ccc(O)c(c2)-c2c(O)cc(O)cc21 (stereo not drawn) [MCC_007339] | xxxx (xxxx = 0.01-<0.1) | xx (xx = 1-4) | xxxx (xxxx = 0.01-<0.1)
CCCCCCCCCC(=O)N[C@@H](CCCCN1CCCCC1)C(=O)N[C@@H](CCCCNC(=O)[C@H]1NC(=O)[C@H]2NC(=O)[C@H](NC(=O)[C@@H]3NC(=O)[C@H](CC(N)=O)NC(=O)[C@H](NC(=O)[C@@H](CC(C)C)NC)[C@H](O)c4ccc(c(Cl)c4)Oc4cc3cc(c4O[C@@H]3O[C@H](CO)[C@@H](O)[C@H](O)[C@H]3O[C@H]3C[C@](C)(N)[C@H](O)[C@H](C)O3)Oc3ccc(cc3Cl)[C@H]2O)c2ccc(O)c(c2)-c2c(O)cc(O)cc21)C(=O)O [MCC_007328] | xxx (xxx = 0.1-<1) | x (x = >4) | xxx (xxx = 0.1-<1)
CCCCCCCCCCCC(=O)N[C@@H](CCCCN)C(=O)N[C@@H](CCCCN)C(=O)NCCCNC(=O)[C@H]1NC(=O)[C@H]2NC(=O)[C@H](NC(=O)[C@@H]3NC(=O)[C@H](CC(N)=O)NC(=O)[C@H](NC(=O)[C@@H](CC(C)C)NC)[C@H](O)c4ccc(c(Cl)c4)Oc4cc3cc(c4O[C@@H]3O[C@H](CO)[C@@H](O)[C@H](O)[C@H]3O[C@H]3C[C@](C)(N)[C@H](O)[C@H](C)O3)Oc3ccc(cc3Cl)[C@H]2O)c2ccc(O)c(c2)-c2c(O)cc(O)cc21 [MCC_000978] | xxxxx (xxxxx = <0.01) | xxx (xxx = 0.1-<1) | xxxxx (xxxxx = <0.01)
CCC(=O)N[C@@H](CCCCN)C(=O)N[C@@H](CCCCN)C(=O)N[C@@H](CCCCNC(=O)[C@H]1NC(=O)[C@H]2NC(=O)[C@H](NC(=O)[C@@H]3NC(=O)[C@H](CC(N)=O)NC(=O)[C@H](NC(=O)[C@@H](CC(C)C)NC)[C@H](O)c4ccc(c(Cl)c4)Oc4cc3cc(c4O[C@@H]3O[C@H](CO)[C@@H](O)[C@H](O)[C@H]3O[C@H]3C[C@](C)(N)[C@H](O)[C@H](C)O3)Oc3ccc(cc3Cl)[C@H]2O)c2ccc(O)c(c2)-c2c(O)cc(O)cc21)C(=O)O [MCC_005388] | x (x = >4) | x (x = >4) | xx (xx = 1-4)
CCCCCCCCC(=O)N[C@@H](CCCCN)C(=O)N[C@@H](CCCCN)C(=O)NCCCNC(=O)[C@H]1NC(=O)[C@H]2NC(=O)[C@H](NC(=O)[C@@H]3NC(=O)[C@H](CC(N)=O)NC(=O)[C@H](NC(=O)[C@@H](CC(C)C)NC)[C@H](O)c4ccc(c(Cl)c4)Oc4cc3cc(c4O[C@@H]3O[C@H](CO)[C@@H](O)[C@H](O)[C@H]3O[C@H]3C[C@](C)(N)[C@H](O)[C@H](C)O3)Oc3ccc(cc3Cl)[C@H]2O)c2ccc(O)c(c2)-c2c(O)cc(O)cc21 [MCC_005199] | xxxx (xxxx = 0.01-<0.1) | xx (xx = 1-4) | xxxx (xxxx = 0.01-<0.1)
CCCCCCCCCCC(=O)N[C@@H](CCCCN)C(=O)NCCCNC(=O)[C@H]1NC(=O)[C@H]2NC(=O)[C@H](NC(=O)[C@@H]3NC(=O)[C@H](CC(N)=O)NC(=O)[C@H](NC(=O)[C@@H](CC(C)C)NC)[C@H](O)c4ccc(c(Cl)c4)Oc4cc3cc(c4O[C@@H]3O[C@H](CO)[C@@H](O)[C@H](O)[C@H]3O[C@H]3C[C@](C)(N)[C@H](O)[C@H](C)O3)Oc3ccc(cc3Cl)[C@H]2O)c2ccc(O)c(c2)-c2c(O)cc(O)cc21 [MCC_005198] | xxxx (xxxx = 0.01-<0.1) | xx (xx = 1-4) | xxxx (xxxx = 0.01-<0.1)
CCCCCCCCCCCCCC(=O)N[C@@H](CCCCN)C(=O)N[C@@H](CCCCN)C(=O)N[C@@H](CCCCN)C(=O)N[C@@H](CCCCNC(=O)[C@H]1NC(=O)[C@H]2NC(=O)[C@H](NC(=O)[C@@H]3NC(=O)[C@H](CC(N)=O)NC(=O)[C@H](NC(=O)[C@@H](CC(C)C)NC)[C@H](O)c4ccc(c(Cl)c4)Oc4cc3cc(c4O[C@@H]3O[C@H](CO)[C@@H](O)[C@H](O)[C@H]3O[C@H]3C[C@](C)(N)[C@H](O)[C@H](C)O3)Oc3ccc(cc3Cl)[C@H]2O)c2ccc(O)c(c2)-c2c(O)cc(O)cc21)C(=O)NC [MCC_000343] | xxxxx (xxxxx = <0.01) | xxxx (xxxx = 0.01-<0.1) | xxxxx (xxxxx = <0.01)
CCCCCCCCCCCCCC(=O)N[C@@H](CCCN)C(=O)N[C@@H](CCCN)C(=O)NCC(=O)NCCNC(=O)[C@H]1NC(=O)[C@H]2NC(=O)[C@H](NC(=O)[C@@H]3NC(=O)[C@H](CC(N)=O)NC(=O)[C@H](NC(=O)[C@@H](CC(C)C)NC)[C@H](O)c4ccc(c(Cl)c4)Oc4cc3cc(c4O[C@@H]3O[C@H](CO)[C@@H](O)[C@H](O)[C@H]3O[C@H]3C[C@](C)(N)[C@H](O)[C@H](C)O3)Oc3ccc(cc3Cl)[C@H]2O)c2ccc(O)c(c2)-c2c(O)cc(O)cc21 [MCC_000228] | xxxxx (xxxxx = <0.01) | xxxx (xxxx = 0.01-<0.1) | xxxxx (xxxxx = <0.01)
CCCCCCCCC(=O)NC(CCCCN)C(=O)NC(CCCCN)C(=O)NC(CCCCNC(=O)C1NC(=O)C2NC(=O)C(NC(=O)C3NC(=O)C(CC(N)=O)NC(=O)C(NC(=O)C(CC(C)C)NC)C(O)c4ccc(c(Cl)c4)Oc4cc3cc(c4OC3OC(CO)C(O)C(O)C3OC3CC(C)(N)C(O)C(C)O3)Oc3ccc(cc3Cl)C2O)c2ccc(O)c(c2)-c2c(O)cc(O)cc21)C(=O)NC (stereo not drawn) [MCC_000491] | xxx (xxx = 0.1-<1) | x (x = >4) | xxx (xxx = 0.1-<1)
CCCCCCCCCC(=O)N[C@@H](CCCNC(=N)N)C(=O)N[C@@H](CCCNC(=N)N)C(=O)N[C@@H](CCCCNC(=O)[C@H]1NC(=O)[C@H]2NC(=O)[C@H](NC(=O)[C@@H]3NC(=O)[C@H](CC(N)=O)NC(=O)[C@H](NC(=O)[C@@H](CC(C)C)NC)[C@H](O)c4ccc(c(Cl)c4)Oc4cc3cc(c4O[C@@H]3O[C@H](CO)[C@@H](O)[C@H](O)[C@H]3O[C@H]3C[C@](C)(N)[C@H](O)[C@H](C)O3)Oc3ccc(cc3Cl)[C@H]2O)c2ccc(O)c(c2)-c2c(O)cc(O)cc21)C(=O)O [MCC_005507] | xxxx (xxxx = 0.01-<0.1) | x (x = >4) | xxxx (xxxx = 0.01-<0.1)
